Where a SMILES comes first, the peptide text is derived from it. [ ]: non-standard residue; d: D form. Phe(4-CF3) = N[C@@H](Cc1ccc(C(F)(F)F)cc1)C(=O)O; Phe(3-Cl) = N[C@@H](Cc1cccc(Cl)c1)C(=O)O; Phe(4-Cl) = N[C@@H](Cc1ccc(Cl)cc1)C(=O)O; Pip = O=C(O)[C@@H]1CCCCN1; β3hD = NC(CC(=O)O)CC(=O)O
What was measured:
[1] = molecular target: T1, RecO (Escherichia coli, UniProt P0A7H3); test: Isothermal titration calorimetry with RecO; assay type: binding; conditions: 50 mM HEPES pH 7.5, 50 mM NaCl, 25% glycerol; read-out: KD, ITC, RecO
T1 construct: His-tag (TEV site) (N, cleaved yes); made in house; host or cells: E. coli Rosetta cells
Description: (§1) Isothermal titration calorimetry (ITC) experiments were performed using a MicroCal VP-ITC titration microcalorimeter. ExoI was dialyzed extensively against the indicated buffer and cleared through centrifugation at 14,000 rpm for 15 min at 4 °C. RecO was subjected to a quick buffer exchange using an Amicon Ultra ultrafiltration device (Sigma). Protein concentrations were determined after the buffer exchange procedure.
(§2) The raw data were integrated using NITPIC [39]. The binding parameters, association equilibrium constant (KA), binding enthalpy (ΔH), and binding entropy (ΔS) were obtained by fitting the titration curves to a model of A + B = C in SEDPHAT [40]. Stoichiometry was fixed to 1:1 and the incompetent fraction was fitted for the protein concentration.

[2] = molecular target: T2, ExoI (Escherichia coli, UniProt P04995); test: Isothermal titration calorimetry with ExoI; assay type: binding, E. coli; conditions: 20 mM Tris–HCl pH 8.0, 100 mM NaCl
T2 construct: His-tag (cleaved yes); host or cells: E. coli BL21 (DE3) pLysS
Description: as §1, §2

[3] = test system: ExoI; conditions: 1 µM biotin-tagged peptide on streptavidin beads, lysate with 1 µM recombinant ExoI, 30 min; on-bead tryptic digestion, nanoLC-MS/MS intensities
Description: ExoI and RecO expressing cells were grown and lysed, as mentioned above. A fraction of cell lysate was used to quantify the recombinant protein content. BL21 (DE)3 pLysS cells were grown on LB media until OD600 = 2.0 and lysed using sonication. Recombinant protein containing lysates were diluted with BL21 (DE)3 pLysS lysate, setting the final concentration of the recombinant protein to 1 µM. SSB peptides (wtSSB, E1-sSSB, R2-sSSB) were immobilized onto Streptavidin DynaBeads using an N-terminal biotin tag. Then, 1 µM immobilized peptides were incubated with cell lysate for 30 min. Beads were washed with trypsin digestion buffer (20 mM TRIS pH = 8.0, 100 mM NaCl, 2 mM CaCl2). Beads were processed with an on-pellet digestion protocol. NanoLC-MS/MS analysis was carried out on a Waters ACQUITY UPLC M-Class LC system (Waters, Milford, MA, USA) coupled with a Q Exactive^TM Plus Hybrid Quadrupole-Orbitrap^TM mass spectrometer (Thermo Fisher Scientific, Waltham, MA, USA). The instrument was operated in the data-dependent mode. […]
To test the affinity improvement for E1-sSSB-Ct and R2-sSSB-Ct relative to wtSSB-Ct in a complex environment, we carried out a pull-down assay using bacterial cell lysates. […] The washed bead was digested, and tryptic peptides were detected using HPLC-MS.

T2 sequence (P04995 whole entry): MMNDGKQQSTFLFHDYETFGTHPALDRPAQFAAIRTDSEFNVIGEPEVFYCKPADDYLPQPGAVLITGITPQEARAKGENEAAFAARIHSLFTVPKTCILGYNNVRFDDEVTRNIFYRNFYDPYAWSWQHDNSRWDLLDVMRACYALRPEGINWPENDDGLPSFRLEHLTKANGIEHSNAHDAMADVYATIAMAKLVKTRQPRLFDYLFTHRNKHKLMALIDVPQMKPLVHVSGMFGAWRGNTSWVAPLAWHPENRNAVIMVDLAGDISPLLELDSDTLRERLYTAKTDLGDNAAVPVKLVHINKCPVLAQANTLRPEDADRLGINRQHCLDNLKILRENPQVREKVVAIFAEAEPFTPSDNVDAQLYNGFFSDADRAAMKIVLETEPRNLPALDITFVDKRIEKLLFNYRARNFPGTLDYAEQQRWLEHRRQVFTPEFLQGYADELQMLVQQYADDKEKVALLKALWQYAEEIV
T1 sequence (P0A7H3 whole entry): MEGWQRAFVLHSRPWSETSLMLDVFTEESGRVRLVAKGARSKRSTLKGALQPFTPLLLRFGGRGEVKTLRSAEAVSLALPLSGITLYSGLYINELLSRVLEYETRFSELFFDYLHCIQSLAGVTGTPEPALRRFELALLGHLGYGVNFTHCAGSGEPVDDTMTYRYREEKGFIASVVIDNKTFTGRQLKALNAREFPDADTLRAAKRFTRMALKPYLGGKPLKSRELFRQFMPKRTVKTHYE

Row | SMILES | Kd [1] | ΔG, ITC, ExoI [2] | −TΔS, ITC, ExoI [2] | N (stoichiometry), ITC, ExoI ([2]; 1 mM MgCl2, 4% glycerol, model A + B = C, stoichiometry fixed 1:1, incompetent fraction fitted) | ΔH, ITC, ExoI ([2]; confidence interval in brackets) | Kd ([2]; read-out: KD, ITC, ExoI (in nM), 1:1 stoichiometry) | enrichment of ExoI on immobilized peptide compared to wtSSB-Ct [3]
1 | CC[C@H](C)[C@H](NC(=O)[C@H](CC(=O)O)NC(=O)[C@H](CC(=O)O)NC(=O)[C@H](CC(=O)O)NC(=O)[C@H](Cc1ccc(Cl)cc1)NC(=O)[C@H](CC(=O)O)NC(C)=O)C(=O)N1CCC[C@H]1C(=O)N[C@@H](Cc1cccc(Cl)c1)C(=O)O [R2-sSSB-Ct] (Ac-D[Phe(4-Cl)]DDDIP[Phe(3-Cl)]-OH) | 35 nM |  |  |  |  |  | 
2 | CC(=O)N[C@@H](CCC(=O)O)C(=O)N[C@@H](Cc1ccc(C(F)(F)F)cc1)C(=O)N[C@@H](CC(=O)O)C(=O)N[C@@H](CC(=O)O)CC(=O)N[C@@H](CCC(=O)O)C(=O)N[C@@H](CC(C)C)C(=O)N1CCCC[C@H]1C(=O)N[C@@H](Cc1ccc(C(F)(F)F)cc1)C(=O)O [E1-sSSB-Ct] (Ac-E[Phe(4-CF3)]D[β3hD]EL[Pip][Phe(4-CF3)]-OH) |  | -10.89 kcal/mol | 6.46 kcal/mol | 1.0000 | −17.35 (−18.34–−16.43) kcal/mol | 19 nM | two-fold

— PMC10143822, “Structural Adaptation of the Single-Stranded DNA-Binding Protein C-Terminal to DNA Metabolizing Partners Guides Inhibitor Design” (Pharmaceutics, 2023)
